Measured values taken from ChEMBL document CHEMBL5380798, “Novel Strategy To Inhibit Transthyretin Amyloidosis via the Synergetic Effect of Chemoselective Acylation and Noncovalent Inhibitor Release” (J Med Chem, 2023).

Assays:
[1] = test system: Transthyretin (Homo sapiens), P02766 [V50M]; experiment: (§1) Inhibition of recombinant Transthyretin V30M mutant (unknown origin) expressed in Escherichia coli expression system assessed as acid mediated fibril formation at 3.6 uM preincubated for 2 hrs followed by addition of acetate buffer solution and measured after 72 hrs by UV-vis spectrophotometry relative to control; conditions: time 74.0 hrs, values are per cent of control
Transthyretin [2] = target: T1, Transthyretin (Homo sapiens, UniProt P02766); experiment: as §1, with “recombinant wild-type” for “recombinant”, “Transthyretin” for “Transthyretin V30M mutant”; conditions: time 74.0 hrs, values are per cent of control
Transthyretin [3] = target: T1, Transthyretin; experiment: Inhibition of recombinant wild-type Transthyretin (unknown origin) expressed in Escherichia coli expression system assessed as acid mediated fibril formation at 1.8 uM measured after 120 hrs by UV-vis spectrophotometry relative to control
Transthyretin [4] = target: T1, Transthyretin; experiment: as §1, with “recombinant wild-type” for “recombinant”, “Transthyretin” for “Transthyretin V30M mutant”, “1.8” for “3.6”; conditions: time 74.0 hrs, values are per cent of control
[5] = test system: Transthyretin (Homo sapiens), P02766 [V50M]; experiment: as §1, with “1.8” for “3.6”; conditions: time 74.0 hrs, values are per cent of control
Transthyretin [6] = target: T1, Transthyretin
Description: Covalent inhibition of urea-induced Transthyretin denaturation in human plasma preincubated for 1 hr followed by urea addition by Western blot analysis

[7] = test system: Transthyretin (Homo sapiens), P02766 [V50M]; experiment: Inhibition of recombinant Transthyretin V30M mutant (unknown origin) assessed as acid mediated fibril formation at 7.2 uM relative to control

Row | response, % of control [1] [%] | response, % of control (Transthyretin [2]) [%] | inhibition (Transthyretin [3]) [%] | response, % of control (Transthyretin [4]) [%] | response, % of control [5] [%] | IC50 (Transthyretin [6]) [nM] | inhibition [7] [%] | SMILES
1 | 3 | 0.3 | < 5 | 0.8 | 13.8 | 470 | – | Cc1n[nH]c(C)c1/C=C/c1cc(Br)c(OC(=O)c2c(F)cc(F)cc2F)c(Br)c1
2 | 3.5 | 0.3 | < 5 | 1.2 | 14.8 | 570 | – | Cc1n[nH]c(C)c1/C=C/c1cc(Br)c(OC(=O)c2c(F)cccc2F)c(Br)c1
3 | 2.9 | 0.3 | – | 2.2 | 18 | – | – | CCC(C)C(=O)Oc1c(Br)cc(/C=C/c2c(C)n[nH]c2C)cc1Br (stereo unspecified)
4 | 3.9 | 0.2 | < 5 | 5.7 | 15.7 | 450 | – | Cc1n[nH]c(C)c1/C=C/c1cc(Br)c(OC(=O)c2ccc(F)cc2)c(Br)c1
5 | 6.6 | 0.3 | – | 2.7 | 23.5 | – | – | CCCC(=O)Oc1c(Br)cc(/C=C/c2c(C)n[nH]c2C)cc1Br
6 | 21 | 11.1 | 46 | 40.9 | 53.8 | – | – | O=C(O)c1ccc2nc(-c3cc(Cl)cc(Cl)c3)oc2c1
7 | 11.1 | 9.2 | – | 17.3 | 41.7 | – | 39 | Cc1n[nH]c(C)c1/C=C/c1cc(Br)c(O)c(Br)c1
